Data: patent US8604046B2, “Substituted piperidine spiro pyrrolidinone and piperidinone, preparation and therapeutic use thereof” (Sanofi, priority 2008, dated 2013)

Experiments:
rhesus H3 receptor [1] = molecular target: T1, rhesus H3 receptor (Macaca mulatta, UniProt Q865E1); test: Rhesus H3 [3H]-methylhistamine radioligand binding assay; design: species or system rhesus monkey (Macacca Mulatta); settings: [3H]-Methylhistamine 2 nM, rhesus H3 membranes, WGA SPA beads, Cheng-Prusoff
Procedure: (§1) Rhesus H3 membranes were prepared from the Flp-In T-REx 293 Cell Line (Invitrogen) stably transfected with pcDNA5/FRT/TO (Invitrogen) containing the rhesus monkey (Macacca Mulatta) 445 amino acid H3 receptor. (Genbank #AY231164). Stably transfected cultures were amplified in tissue culture flasks by standard tissue culture methods and induced to express rhesus H3 by exposure to 500 ng/ml tetracycline (Cellgro) for 24 hours. After induction, cells were dissociated from flasks utilizing Cell Stripper (Cellgro). Cells were centrifuged (1K×g, 5 min) and pellet frozen in an ethanol-dry ice bath to disrupt cell membranes. Frozen cell pellet was re-suspended in 5 mM HEPES (pH 7.4, Invitrogen) at 10 ml/1000 cm2 of harvested cells. The cell suspension was drawn through an 18 gauge needle (2-3×) followed by a 23 gauge needle (2-3×) to further disrupt cell membranes. The cell suspension was centrifuged (40K×g, 30 min). Cell membrane pellet was re-suspended in 5 mM HEPES (pH 7.4, Invitrogen) at a final protein concentration of 10 mg/ml. Rhesus H3 membranes were stored under liquid nitrogen prior to use in [3H]-Methylhistamine and GTP S radioligand binding assays.
Rhesus H3 radioligand binding assay was performed using rhesus H3 receptor membranes (prepared as described above), [3H]-Methylhistamine (Perkin Elmer) and WGA SPA beads (wheat germ agglutinin scintillation proximity assay) beads (Amersham). The assay was performed in 96-well Opti-Plates (Packard). Each reaction contained 50 μl rhesus H3 membranes (20-30 μg total protein), 50 μl WGA SPA beads (0.1 μg) and 50 μl of 83 Ci/mmol [^3H]-Methylhistamine (final concentration 2 nM) and 50 μl of tested compound. The compounds of this invention and/or vehicle were diluted with binding buffer from 10 mM DMSO stocks. Assay plates were sealed with TopSeal (Perkin Elmer) and mixed on shaker (25° C., 1 hour). Assay plates were read on TopCount scintillation counter (Packard). Results were analyzed by Hill transformation and Ki values were determined by Cheng-Prusoff equation.

rhesus H3 receptor [2] = molecular target: T1, rhesus H3 receptor; test: GTPγS radioligand binding assay, inhibition of rhesus H3 constitutive functional activity (inverse agonism); format: biochemical, rhesus monkey (Macacca Mulatta); design: concentration or dose not given beside the values; settings: rhesus H3 cell membranes, relative to basal levels
Procedure: as §1

T1 sequence (Q865E1 1-445): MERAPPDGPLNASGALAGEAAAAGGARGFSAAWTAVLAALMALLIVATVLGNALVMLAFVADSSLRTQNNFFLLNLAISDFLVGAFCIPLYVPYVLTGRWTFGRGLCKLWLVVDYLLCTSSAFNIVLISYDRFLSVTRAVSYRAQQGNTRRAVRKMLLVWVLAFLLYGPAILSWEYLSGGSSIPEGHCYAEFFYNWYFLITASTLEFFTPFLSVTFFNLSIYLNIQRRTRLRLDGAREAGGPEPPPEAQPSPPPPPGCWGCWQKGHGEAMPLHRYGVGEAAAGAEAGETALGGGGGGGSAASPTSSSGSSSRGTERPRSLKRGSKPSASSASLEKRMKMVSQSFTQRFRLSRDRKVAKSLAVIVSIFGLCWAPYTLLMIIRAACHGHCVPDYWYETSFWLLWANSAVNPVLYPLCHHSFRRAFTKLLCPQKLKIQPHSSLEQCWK

Row | SMILES | Ki (rhesus H3 receptor [1]) | Inverse Agonism: % inhibition of Basal GTPγS binding in Rhesus H3 (rhesus H3 receptor [2])
1 | C[C@H]1CCCN1C1CCN(c2ccc(N3CCC4(CCN(C(=O)OC(C)(C)C)CC4)C3=O)cc2)CC1 [Example 38, 2-{4-[4-(2S-2-Methyl-pyrrolidin-1-yl)-piperidin-1-yl]-phenyl}-1-oxo-2,8-diaza-spiro[4,5]decane-8-carboxylic acid tert-butyl ester] | 0.008 nM | −25%
2 | C[C@H]1CCCN1C1CCN(c2ccc(N3CCC4(CCN(C(=O)OC(C)(C)C)CC4)C3=O)c(C(F)(F)F)c2)CC1 [Example 39, 2-{4-[4-(2S-2-Methyl-pyrrolidin-1-yl)-piperidin-1-yl]-2-trifluoromethyl-phenyl}-1-oxo-2,8-diaza-spiro[4.5]decane-8-carboxylic acid tert-butyl ester] | 0.9 nM | −22%
3 | C[C@H]1CCCCN1[C@H]1CCN(c2ccc(N3CCC4(CCN(C(=O)OC(C)(C)C)CC4)C3=O)cc2)C1 [Example 41, 2-{4-[3-((2S,3′S)-2-Methyl-piperidin-1-yl)-pyrrolidin-1-yl]-phenyl}-1-oxo-2,8-diaza-spiro[4.5]decane-8-carboxylic acid tert-butyl ester] | 5.6 nM | −14%
4 | C[C@H]1CCCCN1[C@H]1CCN(c2ccc(N3CCC4(CCN(C(=O)OC(C)(C)C)CC4)C3=O)c(C(F)(F)F)c2)C1 [Example 42, 2-{4-[3-((2S,3′S)-2-Methyl-piperidin-1-yl)-pyrrolidin-1-yl]-2-trifluoromethyl-phenyl}-1-oxo-2,8-diaza-spiro[4.5]decane-8-carboxylic acid tert-butyl ester] | 64 nM | −15%
5 | C[C@H]1CCCCN1[C@H]1CCN(c2ccc(N3CCC4(CCN(C(=O)OC(C)(C)C)CC4)C3=O)c(F)c2)C1 [Example 43, 2-{4-[3-((2S,3′S)-2-Methyl-piperidin-1-yl)-pyrrolidin-1-yl]-2-fluoro-phenyl}-1-oxo-2,8-diaza-spiro[4.5]decane-8-carboxylic acid tert-butyl ester] | 4.3 nM | −19%
6 | C[C@H]1CCCN1C1CCN(c2ccc(N3CCC4(CCNCC4)C3=O)cc2)CC1.Cl [Example 44, 2-{4-[4-(2S-2-Methyl-pyrrolidin-1-yl)-piperidin-1-yl]-phenyl}-2,8-diaza-spiro[4.5]decan-1-one Hydrochloride] | 0.1 nM | −19%
7 | C[C@H]1CCCN1C1CCN(c2ccc(N3CCC4(CCNCC4)C3=O)c(C(F)(F)F)c2)CC1.Cl [Example 45, 2-{4-[4-(2S-2-Methyl-pyrrolidin-1-yl)-piperidin-1-yl]-2-trifluoromethyl-phenyl}-2,8-diaza-spiro[4.5]decan-1-one Hydrochloride] | 0.15 nM | −19%
8 | C[C@H]1CCCN1C1CCN(c2ccc(N3CCC4(CCNCC4)C3=O)c(F)c2)CC1.Cl [Example 46, 2-{4-[4-(2S-2-Methyl-pyrrolidin-1-yl)-piperidin-1-yl]-2-fluoro-phenyl}-2,8-diaza-spiro[4.5]decan-1-one Hydrochloride] | 0.1 nM | −24%
9 | C[C@H]1CCCCN1[C@H]1CCN(c2ccc(N3CCC4(CCNCC4)C3=O)cc2)C1.Cl [Example 47, 2-{4-[3-((2S,3′S)-2-Methyl-piperidin-1-yl)-pyrrolidin-1-yl]-phenyl}-2,8-diaza-spiro[4.5]decan-1-one Hydrochloride] | 0.4 nM | −17%
10 | C[C@H]1CCCCN1[C@H]1CCN(c2ccc(N3CCC4(CCNCC4)C3=O)c(C(F)(F)F)c2)C1.Cl [Example 48, 2-{4-[3-((2S,3′S)-2-Methyl-piperidin-1-yl)-pyrrolidin-1-yl]-2-trifluoromethyl-phenyl}-2,8-diaza-spiro[4.5]decan-1-one Hydrochloride] | 0.6 nM | −24%
11 | C[C@H]1CCCCN1[C@H]1CCN(c2ccc(N3CCC4(CCNCC4)C3=O)c(F)c2)C1.Cl [Example 49, 2-{4-[3-((2S,3′S)-2-Methyl-piperidin-1-yl)-pyrrolidin-1-yl]-2-fluoro-phenyl}-2,8-diaza-spiro[4.5]decan-1-one Hydrochloride] | 0.5 nM | −22%
12 | C[C@H]1CCCN1C1CCN(c2ccc(N3CCC4(CCN(S(=O)(=O)c5ccccc5)CC4)C3=O)cc2)CC1 [Example 50, 8-Benzenesulfonyl-2-{4-[4-(2S-2-methyl-pyrrolidin-1-yl)-piperidin-1-yl]-phenyl}-2,8-diaza-spiro[4.5]decan-1-one] | 0.24 nM | −23%
13 | C[C@H]1CCCN1C1CCN(c2ccc(N3CCC4(CCN(C(=O)c5ccc(F)cc5)CC4)C3=O)cc2)CC1 [Example 51, 8-(4-Fluoro-benzoyl)-2-{4-[4-(2S-2-methyl-pyrrolidin-1-yl)-piperidin-1-yl]-phenyl}-2,8-diaza-spiro[4.5]decan-1-one] | 0.08 nM | −17%
14 | C[C@H]1CCCN1C1CCN(c2ccc(N3CCC4(CCN(C(=O)C5CCCCC5)CC4)C3=O)c(F)c2)CC1 [Example 52, 8-Cyclohexanecarbonyl-2-{2-fluoro-4-[4-(2S-2-methyl-pyrrolidin-1-yl)-piperidin-1-yl]-phenyl}-2,8-diaza-spiro[4.5]decan-1-one] | 0.2 nM | −24%
15 | C[C@H]1CCCCN1[C@H]1CCN(c2ccc(N3CCC4(CCN(S(=O)(=O)c5ccc(F)cc5)CC4)C3=O)cc2)C1 [Example 53, 8-(4-Fluoro-benzenesulfonyl)-2-{4-[3-((2S,3′S)-2-methyl-piperidin-1-yl)-pyrrolidin-1-yl]-phenyl}-2,8-diaza-spiro[4.5]decan-1-one] | 1.9 nM | −13%
16 | C[C@H]1CCCCN1[C@H]1CCN(c2ccc(N3CCC4(CCN(C(=O)C5CCOCC5)CC4)C3=O)cc2)C1 [Example 54, 2-{4-[3-((2S,3′S)-2-Methyl-piperidin-1-yl)-pyrrolidin-1-yl]-phenyl}-8-(tetrahydro-pyran-4-carbonyl)-2,8-diaza-spiro[4.5]decan-1-one] | 3.3 nM | −24%
17 | C[C@H]1CCCCN1[C@H]1CCN(c2ccc(N3CCC4(CCN(C(=O)C5CCCC5)CC4)C3=O)c(C(F)(F)F)c2)C1 [Example 55, 8-Cyclopentanecarbonyl-2-{4-[3-((2S,3′S)-2-methyl-piperidin-1-yl)-pyrrolidin-1-yl]-2-trifluoromethyl-phenyl}-2,8-diaza-spiro[4.5]decan-1-one] | 2.1 nM | −27%
18 | C[C@H]1CCCN1C1CCN(c2ccc(N3CCC4(CCN(CC5CC5)CC4)C3=O)c(F)c2)CC1 [Example 56, 8-Cyclopropylmethyl-2-{2-fluoro-4-[4-(2S-2-methyl-pyrrolidin-1-yl)-piperidin-1-yl]-phenyl}-2,8-diaza-spiro[4.5]decan-1-one] | 0.04 nM | −23%
